Measurements as given in patent publication US20170327494A1, “NON-INVASIVE VENTILATION WITH HIGH FREQUENCY OSCILLATIONS” (KONINKLIJKE PHILIPS N.V., priority 2014, published 2017).

melting point: 117 to 119 °C
SMILES: N#C/C(=C1/SCC(c2cc(Cl)sc2Cl)S1)n1ccnc1 (stereo not shown) [I.h.25, (2E)-2-[4-(2,5-dichloro-3-thienyl)-1,3-dithiolan-2-ylidene]-2-imidazol-1-yl-acetonitrile]
